# In the supplement of paper PMC10307832:
# How the values were obtained:
# Assay in all cases: relative viability (nuclei count vs DMSO), 5 days (fraction); higher = more cells survive
# A-427 = tested on: A-427
# Outline: (§1)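 For relative viability, nuclei counts in treated wells were divided by those in vehicle wells. Lung cancer cell lines had been pin-tool dosed in 1536-well plates the day after seeding and cultured for 5 days, then fixed and stained in one step (final 0.05% Triton X-100, 1% formaldehyde, 1 ug/ml Hoechst) and imaged at 4×. Doses were one drug alone or a fixed anchor-drug dose plus five library-drug doses (not always all listed) in √10 steps, and values are duplicate-plate medians.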
# CAL-12T = tested on: CAL-12T
# Outline: as §1
# COR-L 105 = tested on: COR-L 105
# Outline: as §1
# COR-L23 = tested on: COR-L23
# Outline: as §1
# EPLC-272H = tested on: EPLC-272H
# Outline: as §1
# HOP-62 = tested on: HOP-62
# Outline: as §1
# LCLC-103H = tested on: LCLC-103H
# Outline: as §1
# LXF-289 = tested on: LXF-289
# Outline: as §1
# NCI-H1395 = tested on: NCI-H1395
# Outline: as §1
# NCI-H1651 = tested on: NCI-H1651
# Outline: as §1
# NCI-H1975 = tested on: NCI-H1975
# Outline: as §1
# NCI-H1993 = tested on: NCI-H1993
# Outline: as §1
# NCI-H2023 = tested on: NCI-H2023
# Outline: as §1
# NCI-H2085 = tested on: NCI-H2085
# Outline: as §1
# NCI-H2087 = tested on: NCI-H2087
# Outline: as §1
# NCI-H2170 = tested on: NCI-H2170
# Outline: as §1
# NCI-H3122 = tested on: NCI-H3122
# Outline: as §1
# NCI-H596 = tested on: NCI-H596
# Outline: as §1
# NCI-H647 = tested on: NCI-H647
# Outline: as §1
# NCI-H650 = tested on: NCI-H650
# Outline: as §1
# PC-14 = tested on: PC-14
# Outline: as §1
# RERF-LC-KJ = tested on: RERF-LC-KJ
# Outline: as §1
# SK-MES-1 = tested on: SK-MES-1
# Outline: as §1
smiles,measurement,setting,value
O=C(O)CCCCC(CCSCc1ccccc1)SCc1ccccc1 (stereo not given) [CPI-613] + N=C(N)NC(=N)NCCc1ccccc1 [Phenformin] (partner 250 µM),relative viability,A-427; first compound 5 µM,0.279
same,relative viability,A-427; first compound 15.81 µM,0.255
same,relative viability,A-427; first compound 50 µM,0.267
same,relative viability,A-427; first compound 158.11 µM,0.178
same,relative viability,A-427; first compound 500 µM,0.1
same,relative viability,CAL-12T; first compound 5 µM,0.538
same,relative viability,CAL-12T; first compound 15.81 µM,0.546
same,relative viability,CAL-12T; first compound 50 µM,0.464
same,relative viability,CAL-12T; first compound 158.11 µM,0.0459
same,relative viability,CAL-12T; first compound 500 µM,0.0085
same,relative viability,COR-L 105; first compound 5 µM,0.428
same,relative viability,COR-L 105; first compound 15.81 µM,0.405
same,relative viability,COR-L 105; first compound 50 µM,0.443
same,relative viability,COR-L 105; first compound 158.11 µM,0.279
same,relative viability,COR-L 105; first compound 500 µM,0.112
same,relative viability,COR-L23; first compound 5 µM,0.438
same,relative viability,COR-L23; first compound 15.81 µM,0.393
same,relative viability,COR-L23; first compound 50 µM,0.475
same,relative viability,COR-L23; first compound 158.11 µM,0.199
same,relative viability,COR-L23; first compound 500 µM,0.0157
same,relative viability,EPLC-272H; first compound 5 µM,0.286
same,relative viability,EPLC-272H; first compound 15.81 µM,0.26
same,relative viability,EPLC-272H; first compound 50 µM,0.309
same,relative viability,EPLC-272H; first compound 158.11 µM,0.279
same,relative viability,EPLC-272H; first compound 500 µM,0.0144
same,relative viability,HOP-62; first compound 5 µM,0.67
same,relative viability,HOP-62; first compound 15.81 µM,0.632
same,relative viability,HOP-62; first compound 50 µM,0.62
same,relative viability,HOP-62; first compound 158.11 µM,0.437
same,relative viability,HOP-62; first compound 500 µM,0.204
same,relative viability,LCLC-103H; first compound 5 µM,0.322
same,relative viability,LCLC-103H; first compound 15.81 µM,0.297
same,relative viability,LCLC-103H; first compound 50 µM,0.377
same,relative viability,LCLC-103H; first compound 158.11 µM,0.294
same,relative viability,LCLC-103H; first compound 500 µM,0.278
same,relative viability,LXF-289; first compound 5 µM,0.516
same,relative viability,LXF-289; first compound 15.81 µM,0.504
same,relative viability,LXF-289; first compound 50 µM,0.511
same,relative viability,LXF-289; first compound 158.11 µM,0.443
same,relative viability,LXF-289; first compound 500 µM,0.0481
same,relative viability,NCI-H1395; first compound 5 µM,0.419
same,relative viability,NCI-H1395; first compound 15.81 µM,0.427
same,relative viability,NCI-H1395; first compound 50 µM,0.433
same,relative viability,NCI-H1395; first compound 158.11 µM,0.457
same,relative viability,NCI-H1395; first compound 500 µM,0.397
same,relative viability,NCI-H1651; first compound 5 µM,0.326
same,relative viability,NCI-H1651; first compound 15.81 µM,0.316
same,relative viability,NCI-H1651; first compound 50 µM,0.303
same,relative viability,NCI-H1651; first compound 158.11 µM,0.166
same,relative viability,NCI-H1651; first compound 500 µM,0.126
same,relative viability,NCI-H1975; first compound 5 µM,0.397
same,relative viability,NCI-H1975; first compound 15.81 µM,0.404
same,relative viability,NCI-H1975; first compound 50 µM,0.388
same,relative viability,NCI-H1975; first compound 158.11 µM,0.291
same,relative viability,NCI-H1975; first compound 500 µM,0.0692
same,relative viability,NCI-H1993; first compound 5 µM,0.492
same,relative viability,NCI-H1993; first compound 15.81 µM,0.532
same,relative viability,NCI-H1993; first compound 50 µM,0.492
same,relative viability,NCI-H1993; first compound 158.11 µM,0.473
same,relative viability,NCI-H1993; first compound 500 µM,0.42
same,relative viability,NCI-H2023; first compound 5 µM,0.399
same,relative viability,NCI-H2023; first compound 15.81 µM,0.37
same,relative viability,NCI-H2023; first compound 50 µM,0.36
same,relative viability,NCI-H2023; first compound 158.11 µM,0.0556
same,relative viability,NCI-H2023; first compound 500 µM,0.0073
same,relative viability,NCI-H2085; first compound 5 µM,0.814
same,relative viability,NCI-H2085; first compound 15.81 µM,0.62
same,relative viability,NCI-H2085; first compound 50 µM,0.701
same,relative viability,NCI-H2085; first compound 158.11 µM,0.295
same,relative viability,NCI-H2085; first compound 500 µM,0.0903
same,relative viability,NCI-H2087; first compound 5 µM,0.387
same,relative viability,NCI-H2087; first compound 15.81 µM,0.438
same,relative viability,NCI-H2087; first compound 50 µM,0.379
same,relative viability,NCI-H2087; first compound 158.11 µM,0.129
same,relative viability,NCI-H2087; first compound 500 µM,0.0066
same,relative viability,NCI-H2170; first compound 5 µM,0.435
same,relative viability,NCI-H2170; first compound 15.81 µM,0.404
same,relative viability,NCI-H2170; first compound 50 µM,0.38
same,relative viability,NCI-H2170; first compound 158.11 µM,0.352
same,relative viability,NCI-H2170; first compound 500 µM,0.11
same,relative viability,NCI-H3122; first compound 5 µM,0.387
same,relative viability,NCI-H3122; first compound 15.81 µM,0.364
same,relative viability,NCI-H3122; first compound 50 µM,0.339
same,relative viability,NCI-H3122; first compound 158.11 µM,0.17
same,relative viability,NCI-H3122; first compound 500 µM,0.0221
same,relative viability,NCI-H596; first compound 5 µM,0.64
same,relative viability,NCI-H596; first compound 15.81 µM,0.672
same,relative viability,NCI-H596; first compound 50 µM,0.812
same,relative viability,NCI-H596; first compound 158.11 µM,0.668
same,relative viability,NCI-H596; first compound 500 µM,0.0197
same,relative viability,NCI-H647; first compound 5 µM,0.575
same,relative viability,NCI-H647; first compound 15.81 µM,0.408
same,relative viability,NCI-H647; first compound 50 µM,0.501
same,relative viability,NCI-H647; first compound 158.11 µM,0.108
same,relative viability,NCI-H647; first compound 500 µM,0.0098
same,relative viability,NCI-H650; first compound 5 µM,0.508
same,relative viability,NCI-H650; first compound 15.81 µM,0.412
same,relative viability,NCI-H650; first compound 50 µM,0.448
same,relative viability,NCI-H650; first compound 158.11 µM,0.371
same,relative viability,NCI-H650; first compound 500 µM,0.333
same,relative viability,PC-14; first compound 5 µM,0.463
same,relative viability,PC-14; first compound 15.81 µM,0.458
same,relative viability,PC-14; first compound 50 µM,0.567
same,relative viability,PC-14; first compound 158.11 µM,0.386
same,relative viability,PC-14; first compound 500 µM,0.207
same,relative viability,RERF-LC-KJ; first compound 5 µM,0.42
same,relative viability,RERF-LC-KJ; first compound 15.81 µM,0.409
same,relative viability,RERF-LC-KJ; first compound 50 µM,0.406
same,relative viability,RERF-LC-KJ; first compound 158.11 µM,0.134
same,relative viability,RERF-LC-KJ; first compound 500 µM,0.0945
same,relative viability,SK-MES-1; first compound 5 µM,0.642
same,relative viability,SK-MES-1; first compound 15.81 µM,0.623
same,relative viability,SK-MES-1; first compound 50 µM,0.599
same,relative viability,SK-MES-1; first compound 158.11 µM,0.147
same,relative viability,SK-MES-1; first compound 500 µM,0.0887
